Laboratory results taken from the supplement of paper PMC10307832.

What was measured:
Experiment in all cases: relative viability (nuclei count vs DMSO), 5 days (fraction); higher = more cells survive
[1] = compound: C[C@]1(O)C[C@@H](c2nc(-c3ccc4ccc(-c5ccccc5)nc4c3)c3c(N)nccn32)C1 [Linsitinib] + N=C(N)NC(=N)NCCc1ccccc1 [Phenformin] (partner 250 µM)
Summary of the method: (§1)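 Lung cancer cell lines were seeded in 1536-well plates and dosed by pin tool the next day, with either a single drug or a fixed anchor-drug dose combined with five library-drug doses (not always all listed) spaced in √10 steps. Five days later, one step fixed the cells and stained their nuclei (final 0.05% Triton X-100, 1% formaldehyde, 1 ug/ml Hoechst), and nuclei were counted on 4× images. Relative viability is the nuclei count in treated wells divided by the count in vehicle wells, and each value is the median of duplicate plates.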

[2] = compound: Cc1ccc(C(=O)N(CCCN)[C@@H](c2nc3cc(Cl)ccc3c(=O)n2Cc2ccccc2)C(C)C)cc1 [Ispinesib] + CCNC(=O)c1noc(-c2cc(C(C)C)c(O)cc2O)c1-c1ccc(CN2CCOCC2)cc1 [Luminespib] (partner 0.01 µM)
Summary of the method: as §1

[3] = compound: Cc1ccc(C(=O)N(CCCN)[C@@H](c2nc3cc(Cl)ccc3c(=O)n2Cc2ccccc2)C(C)C)cc1 [Ispinesib] + Nc1ncn([C@H]2C[C@H](O)[C@@H](CO)O2)c(=O)n1 [Decitabine] (partner 2 µM)
Summary of the method: as §1

[4] = compound: Cc1ccc(C(=O)N(CCCN)[C@@H](c2nc3cc(Cl)ccc3c(=O)n2Cc2ccccc2)C(C)C)cc1 [Ispinesib] + O=C(c1cc(Cc2n[nH]c(=O)c3ccccc23)ccc1F)N1CCN(C(=O)C2CC2)CC1 [Olaparib] (partner 8 µM)
Summary of the method: as §1

Cell Line	relative viability ([1]; first compound 0.01 µM)	relative viability ([1]; first compound 0.03162 µM)	relative viability ([1]; first compound 0.1 µM)	relative viability ([1]; first compound 0.3162 µM)	relative viability ([1]; first compound 1 µM)	relative viability ([2]; first compound 0.001 µM)	relative viability ([2]; first compound 0.003162 µM)	relative viability ([2]; first compound 0.01 µM)	relative viability ([2]; first compound 0.03162 µM)	relative viability ([2]; first compound 0.1 µM)	relative viability ([3]; first compound 0.001 µM)	relative viability ([3]; first compound 0.003162 µM)	relative viability ([3]; first compound 0.01 µM)	relative viability ([3]; first compound 0.03162 µM)	relative viability ([3]; first compound 0.1 µM)	relative viability ([4]; first compound 0.001 µM)	relative viability ([4]; first compound 0.003162 µM)	relative viability ([4]; first compound 0.01 µM)	relative viability ([4]; first compound 0.03162 µM)	relative viability ([4]; first compound 0.1 µM)
NCI-H2405	0.406	0.446	0.384	0.377	0.292	0.651	0.733	0.677	0.637	0.52	0.754	0.741	0.845	0.831	0.695	0.992	0.942	0.801	0.853	0.556
NCI-H3122	0.378	0.352	0.309	–	0.335	0.105	0.12	0.0892	0.0855	0.0889	0.498	0.443	0.426	0.483	0.292	0.674	0.683	0.743	0.615	0.524
PC-3 [JPC-3]	0.464	0.48	0.515	0.436	0.45	0.716	0.853	0.75	0.748	0.548	0.838	0.867	0.781	0.796	0.465	1.23	1.31	0.887	1.12	0.541
PC-14	0.623	0.523	0.58	0.533	0.395	0.168	0.13	0.131	0.131	0.125	0.21	0.18	0.0598	0.0507	0.0665	0.27	0.141	0.0942	0.0729	0.144
RERF-LC-KJ	0.408	0.368	0.463	0.425	0.409	1.49	1.2	0.958	0.259	0.442	0.738	0.617	0.243	0.222	0.271	0.934	0.791	0.427	0.22	0.328
SK-LU-1	0.558	–	0.588	0.391	0.325	0.212	0.224	0.219	0.194	0.178	0.605	0.62	0.608	0.57	0.361	0.606	0.449	0.393	0.435	0.356
SK-MES-1	0.645	0.658	0.645	0.491	0.479	0.954	0.691	0.966	0.203	0.221	0.359	0.393	0.286	0.187	0.211	0.762	0.788	0.648	0.201	0.228
SW 900	0.701	0.753	0.553	0.433	0.37	0.206	0.171	0.164	0.183	0.19	0.388	0.344	0.43	0.396	0.311	0.858	0.889	0.914	0.827	0.418
SW 1573	0.359	0.335	0.311	0.244	0.203	0.234	0.198	0.13	0.151	0.148	0.44	0.58	0.421	0.156	0.199	0.541	0.421	0.447	0.142	0.185
